Experimental data from patent US10870647B2, “Imidazopyridine derivative, method for preparing same, and pharmaceutical composition containing same as active ingredient for preventing or treating cancer” (DAEGU-GYEONGBUK MEDICAL INNOVATION FOUNDATION, priority 2016, dated 2020).

Tests used:
Test in all cases: Kinase selectivity, scanMAX Kinase assay panel (DiscoverX), % control at 1 uM
Type in all cases: binding
[1] = biological target: T1, scanMAX Kinase assay panel (Homo sapiens, UniProt Q86Y07); conditions: VRK2; 1 uM; read-out: Percent Control (%)
T1 construct: purchased DiscoverX
T1 sequence (Q86Y07 whole entry): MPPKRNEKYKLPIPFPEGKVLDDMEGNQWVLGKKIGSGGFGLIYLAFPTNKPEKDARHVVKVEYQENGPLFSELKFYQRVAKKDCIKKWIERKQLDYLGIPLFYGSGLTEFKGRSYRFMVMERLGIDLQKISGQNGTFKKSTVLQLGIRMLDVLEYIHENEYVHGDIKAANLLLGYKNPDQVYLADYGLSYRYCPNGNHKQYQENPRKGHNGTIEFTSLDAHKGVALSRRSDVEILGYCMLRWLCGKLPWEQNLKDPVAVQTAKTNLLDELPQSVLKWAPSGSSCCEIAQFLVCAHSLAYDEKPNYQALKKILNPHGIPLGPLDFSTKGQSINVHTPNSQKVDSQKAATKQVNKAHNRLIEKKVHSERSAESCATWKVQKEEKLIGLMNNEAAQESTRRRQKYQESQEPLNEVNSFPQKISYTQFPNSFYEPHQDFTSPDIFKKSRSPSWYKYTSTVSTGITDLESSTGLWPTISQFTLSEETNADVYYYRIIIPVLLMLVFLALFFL
Summary of the method: (§1)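 Each kinase was first exposed to the test compound at 1 uM in DMSO. Signal was then normalised to positive and negative controls to give % control. Finally, any enzyme showing <35% control was judged inhibited.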

[2] = biological target: T2, scanMAX Kinase assay panel (Homo sapiens, UniProt Q8TDC3); conditions: BRSK1; 1 uM; read-out: Percent Control (%)
T2 construct: purchased DiscoverX
T2 sequence (Q8TDC3 1-778): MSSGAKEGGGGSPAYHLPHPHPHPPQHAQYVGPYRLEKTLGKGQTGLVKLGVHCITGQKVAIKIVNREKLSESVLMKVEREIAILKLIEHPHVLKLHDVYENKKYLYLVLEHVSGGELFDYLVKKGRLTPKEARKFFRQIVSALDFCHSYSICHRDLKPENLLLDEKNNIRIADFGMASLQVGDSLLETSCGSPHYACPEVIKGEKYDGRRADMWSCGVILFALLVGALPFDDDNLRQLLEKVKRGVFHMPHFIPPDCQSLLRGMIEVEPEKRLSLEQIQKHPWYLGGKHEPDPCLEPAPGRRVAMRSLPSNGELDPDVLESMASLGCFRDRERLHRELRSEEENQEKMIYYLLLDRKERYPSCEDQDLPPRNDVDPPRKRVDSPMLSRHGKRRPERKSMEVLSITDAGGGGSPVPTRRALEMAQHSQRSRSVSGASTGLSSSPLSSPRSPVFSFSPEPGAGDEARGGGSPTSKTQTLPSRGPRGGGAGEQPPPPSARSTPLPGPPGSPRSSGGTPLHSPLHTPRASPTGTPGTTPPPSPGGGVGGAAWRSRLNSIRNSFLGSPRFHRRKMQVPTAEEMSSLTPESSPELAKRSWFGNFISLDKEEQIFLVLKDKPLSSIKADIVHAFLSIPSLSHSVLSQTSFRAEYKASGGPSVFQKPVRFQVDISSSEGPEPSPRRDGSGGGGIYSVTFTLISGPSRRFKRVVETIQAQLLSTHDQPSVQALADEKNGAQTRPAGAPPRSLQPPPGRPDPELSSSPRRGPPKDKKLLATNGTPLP
Summary of the method: as §1

[3] = biological target: T3, scanMAX Kinase assay panel (Homo sapiens, UniProt P22607); conditions: FGFR3; 1 uM; read-out: Percent Control (%)
T3 construct: purchased DiscoverX
T3 sequence (P22607 23-806): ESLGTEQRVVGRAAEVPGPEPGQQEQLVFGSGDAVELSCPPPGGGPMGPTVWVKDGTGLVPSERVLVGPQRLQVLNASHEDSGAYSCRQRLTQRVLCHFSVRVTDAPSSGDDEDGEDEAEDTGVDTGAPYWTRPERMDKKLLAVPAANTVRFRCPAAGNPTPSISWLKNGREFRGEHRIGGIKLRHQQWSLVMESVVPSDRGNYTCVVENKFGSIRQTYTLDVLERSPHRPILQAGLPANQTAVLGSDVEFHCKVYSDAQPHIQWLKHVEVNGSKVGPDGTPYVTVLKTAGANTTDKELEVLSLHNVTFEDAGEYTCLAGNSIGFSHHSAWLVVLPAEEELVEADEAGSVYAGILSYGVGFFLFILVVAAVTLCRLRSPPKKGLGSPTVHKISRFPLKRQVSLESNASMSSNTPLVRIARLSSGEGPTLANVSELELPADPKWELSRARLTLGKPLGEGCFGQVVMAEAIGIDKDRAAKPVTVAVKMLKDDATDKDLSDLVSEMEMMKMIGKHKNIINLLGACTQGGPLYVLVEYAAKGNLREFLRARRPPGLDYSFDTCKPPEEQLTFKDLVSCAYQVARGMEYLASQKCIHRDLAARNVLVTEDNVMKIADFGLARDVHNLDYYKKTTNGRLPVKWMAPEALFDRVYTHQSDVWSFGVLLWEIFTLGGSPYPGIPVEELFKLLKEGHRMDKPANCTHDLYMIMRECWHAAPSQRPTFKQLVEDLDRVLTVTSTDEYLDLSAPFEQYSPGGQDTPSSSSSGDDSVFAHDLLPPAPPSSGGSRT
Summary of the method: as §1

[4] = biological target: T4, scanMAX Kinase assay panel (Homo sapiens, UniProt P54760); conditions: EPHB4; 1 uM; read-out: Percent Control (%)
T4 construct: purchased DiscoverX
T4 sequence (P54760 16-987): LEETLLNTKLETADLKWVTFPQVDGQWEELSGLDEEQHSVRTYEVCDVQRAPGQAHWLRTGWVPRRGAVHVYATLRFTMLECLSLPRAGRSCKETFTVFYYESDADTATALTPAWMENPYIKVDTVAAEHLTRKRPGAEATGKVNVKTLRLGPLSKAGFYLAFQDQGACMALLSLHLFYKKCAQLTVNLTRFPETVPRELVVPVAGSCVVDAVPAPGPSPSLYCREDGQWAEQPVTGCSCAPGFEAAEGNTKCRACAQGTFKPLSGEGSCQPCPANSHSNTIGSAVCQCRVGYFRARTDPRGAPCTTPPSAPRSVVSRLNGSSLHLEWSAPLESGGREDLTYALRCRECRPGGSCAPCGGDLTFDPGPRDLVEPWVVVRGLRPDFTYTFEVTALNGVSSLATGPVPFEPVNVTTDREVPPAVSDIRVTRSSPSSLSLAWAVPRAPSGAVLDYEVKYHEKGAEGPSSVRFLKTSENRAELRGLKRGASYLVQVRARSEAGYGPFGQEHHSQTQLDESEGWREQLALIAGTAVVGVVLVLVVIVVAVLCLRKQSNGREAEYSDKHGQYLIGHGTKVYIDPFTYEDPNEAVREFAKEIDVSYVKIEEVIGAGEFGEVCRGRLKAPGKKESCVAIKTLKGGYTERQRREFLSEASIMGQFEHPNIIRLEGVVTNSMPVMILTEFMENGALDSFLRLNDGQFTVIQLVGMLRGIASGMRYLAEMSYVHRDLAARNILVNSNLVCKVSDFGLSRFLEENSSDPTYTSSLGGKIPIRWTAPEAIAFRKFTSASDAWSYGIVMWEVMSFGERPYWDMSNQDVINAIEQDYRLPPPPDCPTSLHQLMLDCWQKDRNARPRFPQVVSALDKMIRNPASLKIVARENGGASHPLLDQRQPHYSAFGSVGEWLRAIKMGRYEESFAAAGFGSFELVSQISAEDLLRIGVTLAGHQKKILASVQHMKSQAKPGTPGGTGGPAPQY
Summary of the method: as §1

[5] = biological target: T5, scanMAX Kinase assay panel (Homo sapiens, UniProt O43293); conditions: DAPK3; 1 uM; read-out: Percent Control (%)
T5 construct: purchased DiscoverX
T5 sequence (O43293 whole entry): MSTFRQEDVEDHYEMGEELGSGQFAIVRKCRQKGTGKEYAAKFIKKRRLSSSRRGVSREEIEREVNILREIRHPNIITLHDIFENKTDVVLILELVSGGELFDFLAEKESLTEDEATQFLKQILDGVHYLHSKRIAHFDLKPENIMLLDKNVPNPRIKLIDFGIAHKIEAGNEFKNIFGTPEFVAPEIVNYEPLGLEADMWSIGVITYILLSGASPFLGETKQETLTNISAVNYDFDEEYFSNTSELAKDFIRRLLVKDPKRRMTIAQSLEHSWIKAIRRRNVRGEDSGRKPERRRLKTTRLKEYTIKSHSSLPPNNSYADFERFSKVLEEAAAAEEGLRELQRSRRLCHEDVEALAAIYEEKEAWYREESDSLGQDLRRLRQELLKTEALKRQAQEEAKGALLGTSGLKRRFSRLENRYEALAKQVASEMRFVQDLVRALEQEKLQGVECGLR
Summary of the method: as §1

[6] = biological target: T6, scanMAX Kinase assay panel (Homo sapiens, UniProt O43318); conditions: TAK1; 1 uM; read-out: Percent Control (%)
T6 construct: purchased DiscoverX
T6 sequence (O43318 1-606): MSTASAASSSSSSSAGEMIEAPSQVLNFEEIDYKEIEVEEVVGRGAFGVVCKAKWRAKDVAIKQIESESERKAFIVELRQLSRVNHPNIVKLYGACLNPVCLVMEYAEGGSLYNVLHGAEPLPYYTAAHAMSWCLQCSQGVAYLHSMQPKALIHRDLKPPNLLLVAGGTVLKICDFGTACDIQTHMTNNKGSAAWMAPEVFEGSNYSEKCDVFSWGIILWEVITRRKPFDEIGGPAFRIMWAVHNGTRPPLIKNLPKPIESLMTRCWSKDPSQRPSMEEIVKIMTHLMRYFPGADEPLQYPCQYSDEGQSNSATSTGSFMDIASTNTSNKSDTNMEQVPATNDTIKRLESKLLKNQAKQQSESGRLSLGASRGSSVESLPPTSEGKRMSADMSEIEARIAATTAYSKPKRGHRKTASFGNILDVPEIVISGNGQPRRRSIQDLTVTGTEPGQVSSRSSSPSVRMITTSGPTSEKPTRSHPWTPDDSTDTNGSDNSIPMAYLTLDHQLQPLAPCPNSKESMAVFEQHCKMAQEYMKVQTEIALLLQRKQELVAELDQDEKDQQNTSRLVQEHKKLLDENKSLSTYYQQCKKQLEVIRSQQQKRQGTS
Summary of the method: as §1

| SMILES | remaining binding at 1 µM [1] | remaining binding at 1 µM [2] | remaining binding at 1 µM [3] | remaining binding at 1 µM [4] | remaining binding at 1 µM [5] | remaining binding at 1 µM [6] |
| --- | --- | --- | --- | --- | --- | --- |
| Cc1ccc(C(=O)Nc2ccc(CN3CCN(C)CC3)c(C(F)(F)F)c2)cc1C#Cc1cnc2c(Nc3cnn(C)c3)cccn12 [Example 1, 4-methyl-3-((8-((1-methyl-1H-pyrazol-4-yl)amino)imidazo[1,2-a]pyridin-3-yl)ethynyl)-N-(4-((4-methylpiperazin-1-yl)methyl)-3-(trifluoromethyl)phenyl)benzamide] | 86% | 100% | 3% | 3% | 68% | 0% |
| Cc1cn(-c2cc(NC(=O)c3ccc(C)c(C#Cc4cnc5c(Nc6cnn(C)c6)cccn45)c3)cc(C(F)(F)F)c2)cn1 [Example 12, 4-methyl-N-(3-(4-methyl-1H-imidazol-1-yl)-5-(trifluoromethyl)phenyl)-3-((8-((1-methyl-1H-pyrazol-4-yl)amino)imidazo[1,2-a]pyridin-3-yl)ethynyl)benzamide] | 100% | 83% | 33% | 41% | 100% | 14% |
| Cc1ccc(NC(=O)C2(C(=O)Nc3ccc(F)cc3)CC2)cc1C#Cc1cnc2c(Nc3cnn(C(C)C)c3)cccn12 [Example 78] | 100% | 100% | 100% | 100% | 100% | 76% |
